Test results: PMC4532832, “GABA signalling modulates plant growth by directly regulating the activity of plant-specific anion transporters” (Nature Communications, 2015)
Residue numbers refer to the chain shown, from its start. pEC50: −log10 of the molar value. Like-named read-outs stand apart in the source and are kept apart here.

Experiments:
Format in all cases: cell-based
[1] = target: T1, TaALMT1 (Triticum aestivum, UniProt Q76LB1, F213C/F215C); assay: two-electrode voltage clamp, X. laevis oocytes; conditions: read-out: half-maximal effective concentration
T1 construct: gene ALMT1; full-length, untagged as told; cRNA from pGEMHE-DEST in Xenopus laevis oocytes; BY2 tobacco line for flux
T1 sequence (Q76LB1 1-459 F213C/F215C): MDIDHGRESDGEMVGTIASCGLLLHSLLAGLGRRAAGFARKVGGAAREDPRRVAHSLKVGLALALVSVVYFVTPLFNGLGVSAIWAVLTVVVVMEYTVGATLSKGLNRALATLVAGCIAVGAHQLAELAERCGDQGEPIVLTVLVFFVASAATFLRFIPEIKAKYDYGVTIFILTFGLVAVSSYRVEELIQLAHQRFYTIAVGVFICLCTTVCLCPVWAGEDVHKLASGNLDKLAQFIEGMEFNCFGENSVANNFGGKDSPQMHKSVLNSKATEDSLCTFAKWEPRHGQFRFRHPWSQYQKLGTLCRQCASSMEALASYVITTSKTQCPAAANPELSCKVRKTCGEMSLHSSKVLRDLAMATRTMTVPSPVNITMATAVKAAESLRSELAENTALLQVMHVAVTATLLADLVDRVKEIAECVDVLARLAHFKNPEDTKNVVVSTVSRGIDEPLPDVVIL

[2] = target: T2, TaALMT1 (Triticum aestivum, UniProt Q76LB1); assay: two-electrode voltage clamp, X. laevis oocytes
T2 construct: gene ALMT1; full-length, untagged as told; cRNA from pGEMHE-DEST in Xenopus laevis oocytes; BY2 tobacco line for flux
T2 sequence (Q76LB1 1-459): T1 sequence (Q76LB1 1-459 F213C/F215C) with C213F, C215F

[3] = target: T3, VvALMT9 (Vitis vinifera, UniProt F6GTK1, Y237C); assay: two-electrode voltage clamp, X. laevis oocytes; conditions: read-out: half-maximal effective concentration
T3 construct: gene VIT_17s0000g03850; full-length, untagged as told; cRNA from pGEMHE-DEST in Xenopus laevis oocytes
T3 sequence (F6GTK1 entry or part of it Y237C): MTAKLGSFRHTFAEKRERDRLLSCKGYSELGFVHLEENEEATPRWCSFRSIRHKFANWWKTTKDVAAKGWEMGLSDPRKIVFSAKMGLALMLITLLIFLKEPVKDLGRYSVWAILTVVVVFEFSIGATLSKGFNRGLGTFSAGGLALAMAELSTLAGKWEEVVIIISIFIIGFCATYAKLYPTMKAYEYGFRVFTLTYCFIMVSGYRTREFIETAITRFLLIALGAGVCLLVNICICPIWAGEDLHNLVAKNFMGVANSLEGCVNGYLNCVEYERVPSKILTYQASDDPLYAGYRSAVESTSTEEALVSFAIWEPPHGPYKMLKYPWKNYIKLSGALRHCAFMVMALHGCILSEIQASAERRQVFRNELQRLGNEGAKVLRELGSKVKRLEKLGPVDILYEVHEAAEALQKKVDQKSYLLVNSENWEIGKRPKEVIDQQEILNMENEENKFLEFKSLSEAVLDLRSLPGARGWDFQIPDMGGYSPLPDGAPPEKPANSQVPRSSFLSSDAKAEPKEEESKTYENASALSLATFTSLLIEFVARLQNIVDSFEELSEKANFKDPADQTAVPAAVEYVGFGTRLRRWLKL

[4] = target: T4, TaALMT1 (Triticum aestivum, UniProt Q76LB1, F215C); assay: two-electrode voltage clamp, X. laevis oocytes; conditions: 10 mM malate-activated current, 100 μM GABA
T4 construct: gene ALMT1; full-length, untagged as told; cRNA from pGEMHE-DEST in Xenopus laevis oocytes; BY2 tobacco line for flux
T4 sequence (Q76LB1 1-459 F215C): T1 sequence (Q76LB1 1-459 F213C/F215C) with C213F

[5] = target: T5, VvALMT9 (Vitis vinifera, UniProt F6GTK1); assay: two-electrode voltage clamp, X. laevis oocytes; conditions: read-out: half-maximal effective concentration
T5 construct: gene VIT_17s0000g03850; full-length, untagged as told; cRNA from pGEMHE-DEST in Xenopus laevis oocytes
T5 sequence (F6GTK1 1-588): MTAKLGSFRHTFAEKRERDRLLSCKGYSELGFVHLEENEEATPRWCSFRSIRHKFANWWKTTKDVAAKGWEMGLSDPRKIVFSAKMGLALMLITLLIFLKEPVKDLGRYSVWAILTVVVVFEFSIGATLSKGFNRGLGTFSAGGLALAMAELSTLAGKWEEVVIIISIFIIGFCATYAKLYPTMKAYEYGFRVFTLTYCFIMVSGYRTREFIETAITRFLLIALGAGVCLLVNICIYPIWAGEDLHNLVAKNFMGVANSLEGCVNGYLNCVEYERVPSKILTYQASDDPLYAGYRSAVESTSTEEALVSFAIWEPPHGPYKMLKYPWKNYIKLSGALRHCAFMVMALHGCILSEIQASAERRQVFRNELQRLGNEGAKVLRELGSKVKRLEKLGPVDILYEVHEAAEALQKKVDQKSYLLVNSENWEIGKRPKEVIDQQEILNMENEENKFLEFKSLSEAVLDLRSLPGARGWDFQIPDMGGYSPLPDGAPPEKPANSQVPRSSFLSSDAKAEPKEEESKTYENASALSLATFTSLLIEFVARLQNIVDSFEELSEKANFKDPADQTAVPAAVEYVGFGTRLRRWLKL

[6] = target: T2, TaALMT1; assay: two-electrode voltage clamp in oocytes; malate efflux from TaALMT1-expressing BY2 cells; conditions: 100 μM bicuculline against muscimol or GABA; competitive antagonist

## NCCCC(=O)O [GABA]
[1]
  pEC50: < 3.00
[2]; read-out: half-maximal effective concentration
  pEC50: 5.49
[3]
  pEC50: 3.16
[4]
  inhibition at 100 μM: whereas inward current through TaALMT1^F215C was reduced by GABA
[5]
  pEC50: 5.30

## CN1CCc2cc3c(cc2[C@H]1[C@@H]1OC(=O)c2c1ccc1c2OCO1)OCO3 [bicuculline]
[6]
  two-electrode voltage clamp in oocytes; malate efflux from TaALMT1-expressing BY: bicuculline appears to act as a competitive antagonist to GABA action for TaALMT1

## NCc1cc(=O)[nH]o1 [muscimol]
[2]
  pEC50: 5.26
